Test results published in patent publication US20030207813A1, “Retroviral protease inhibitor combinations” (priority 1995, published 2003).
Converted amounts (≈) assume the structure as drawn. Read-outs that look alike come from different tables or passages of the source.

Experiments:
[1] = test system: HIV-1RF; experiment: CEM-T4 cell infection assay, reverse transcriptase readout, isolate RF; type: cell-based; conditions: Human immunodeficiency virus 1, CEM-T4, 168 h, 7 days, read-out: Virus Isolate (EC50 ng/mL) RF
Source text: (§1) RF represents the HIV-1 strain HIV-LRF and RFR represents a mixture of resistant strains obtained by selection of RF against the compound of Example 1. RFR comprises a mixture of viral strains having protease genotypes of G48V (14/40 clones); G48V, V82A (18/40 clones); G48V, L90S (2/40 clones); G48V, 154T, V82A (1/40 clones); G48M (1/40 clones); G48V, Q61H (1/40 clones); V13I, G48V (1/40 clones); G48V, F53L, V82A (1/40 clones); and G48V, V82A, C95Y (1/40 clones). RFR2 represents a mixture of resistant strains obtained by cloning RFR by three rounds of growth at limiting dilution. RFR2 comprises a mixture of viral strains having protease genotypes of G48V, V82A (13/15 clones); G17E, G48V, V82A (1/15 clones); and G48V, V82A, N37D, N88D (1/15 clones). RFRR represents a mixture of resistant strains obtained by selection of RF against the compounds of Examples 1 and 2 and then cloning by three rounds of growth at limiting dilution. RFRR comprises a mixture of viral strains having protease genotypes of G48V, 154T, L63P, V82A (7/9 clones); G48V, 154T, L63P, V82A, N88S (1/9 clones); and G48V, 154T, L63P, G73M, V82A (1/9 clones). SF162 represents the HIV-1 strain SF-162 and SF162R represents a mixture of resistant strains obtained by selection of SF162 against the compound of Example 1. SF162R comprises a mixture of viral strains having protease genotypes of M461, F53L, L63P, A71V, N88D (2/3 clones); and M46I, F53L, L63P, A71V, N88D, Q92R (1/3 clones). 89-959 represents the HIV-1 strain 89-959 and 89-959R represents a mixture of resistant strains obtained by selection of 89-959 against the compound of Example 2. 89-959R comprises a mixture of viral strains having protease genotypes of N88S (4/5 clones); and D25N, T26A, D30N, D37N, R41K, G73D, R87K, N88S (1/4 clones). NL4 represents the HIV-1 strain HIV-1NL4-3. NL4(G48V) represents a strain having a synthetically generated site-directed mutation in the protease from glycine to valine at amino acid position number 48. NL4(I84V) represents a strain having a synthetically generated site-directed mutation in the protease from isoleucine to valine at amino acid position number 84. NL4(R8Q,M46I) represents a strain having synthetically generated site-directed mutations in the protease from arginine to glutamine at amino acid position number 8 and methionine to isoleucine at amino acid position number 46. NL4(P22-538) represents a mixture of resistant strains obtained by selection of HIV-1NL4-3 against the compound of Example 10 after 22 passages comprising protease genotypes M46I, L63P, A71V, V82F, I84V (4/10); M46I, L63P, V82F, I84V (3/10); and M46I, A71V, V82F, I84V (3/10). NL4(P37-538) represents resistant strains obtained by selection of HIV-1NL4-3 against the compound of Example 10 after 37 passages comprising protease genotype M46I, L63P, A71V, 184A. NL4(538/524) represents resistant strains obtained by selection of NL4(P22-538) against the compound of Example 5 after 24 passages comprising protease genotype M46I, L63P, A71V, 184A. NL4(538/P7-AG) represents a mixture of resistant strains obtained by selection of NL4(P22-538) against the compound of Example 12 after 7 passages comprising protease genotypes M46I, L63P, A71V, 184A; and V321, V82I. NL4(538/P24-AG) represents resistant strains obtained by selection of NL4(P22-538) against the compound of Example 12 after 24 passages comprising protease genotype M46I, L63P, A71V, 184A. NLA(P19-003) represents resistant strains obtained by selection of HIV-1^NL4-3 against the compound of Example 9 after 19 passages comprising protease genotype R8K, M46I. NL4(P34-003) represents resistant strains obtained by selection of HIV-1^NL4-3 against the compound of Example 9 after 34 passages comprising protease genotype R8K, M46I, L63P, A71V, L90M.
(§2) The viral isolate resistance results summarized in Tables 4-6 were generated according to the following assay procedure or minor modifications thereof. Assays are performed in 96-well tissue culture plates. […]

[2] = test system: RFR (resistant strains selected from RF against Example 1); experiment: CEM-T4 cell infection assay, reverse transcriptase readout, resistant isolate RFR; type: cell-based, HIV-1; conditions: Human immunodeficiency virus 1, CEM-T4, 168 h, Table 4, CEM-T4 cells, 7 days, read-out: Virus Isolate (EC50 ng/mL) RFR
Source text: as §1, §2

[3] = test system: RFR2 (RFR cloned by three rounds of limiting dilution); experiment: CEM-T4 cell infection assay, reverse transcriptase readout, resistant isolate RFR2; type: cell-based, HIV-1; conditions: Human immunodeficiency virus 1, 168 h, Table 6, CEM-T4 cells, 7 days, read-out: Virus Isolate (EC50 ng/mL) RFR2
Source text: as §1, §2

[4] = test system: NL4(P37-538); experiment: Viral isolate resistance assay per Markowitz et al., NL4(P37-538); type: cell-based, HIV-1; conditions: Human immunodeficiency virus 1, read-out: Virus Isolate (EC50 nM) NL4(P37-538)
Source text: as §1
The viral isolate resistance results summarized in Tables 7-11 were generated according to the assay procedures described by Markowitz et al., Journal of Virology, vol. […]

[5] = test system: HIV-1NL4-3; experiment: microbe, parasite or virus in culture; type: cell-based; conditions: Human immunodeficiency virus 1, NL4
Source text: RF represents the HIV-1 strain HIV-LRF and RFR represents a mixture of resistant strains obtained by selection of RF against the compound of Example 1. […] RFR2 represents a mixture of resistant strains obtained by cloning RFR by three rounds of growth at limiting dilution. […] RFRR represents a mixture of resistant strains obtained by selection of RF against the compounds of Examples 1 and 2 and then cloning by three rounds of growth at limiting dilution. […] SF162 represents the HIV-1 strain SF-162 and SF162R represents a mixture of resistant strains obtained by selection of SF162 against the compound of Example 1. […] 89-959 represents the HIV-1 strain 89-959 and 89-959R represents a mixture of resistant strains obtained by selection of 89-959 against the compound of Example 2. […] NL4 represents the HIV-1 strain HIV-1NL4-3. NL4(G48V) represents a strain having a synthetically generated site-directed mutation in the protease from glycine to valine at amino acid position number 48. NL4(I84V) represents a strain having a synthetically generated site-directed mutation in the protease from isoleucine to valine at amino acid position number 84. NL4(R8Q,M46I) represents a strain having synthetically generated site-directed mutations in the protease from arginine to glutamine at amino acid position number 8 and methionine to isoleucine at amino acid position number 46.

[6] = test system: RFRR (resistant strains selected from RF against Examples 1 and 2); experiment: CEM-T4 cell infection assay, reverse transcriptase readout, resistant isolate RFRR; type: cell-based, HIV-1; conditions: Human immunodeficiency virus 1, 168 h, Table 6, CEM-T4 cells, 7 days, read-out: Virus Isolate (EC50 ng/mL) RFRR
Source text: as §1, §2

[7] = test system: NL4(P22-538); experiment: Viral isolate resistance assay per Markowitz et al., NL4(P22-538); type: cell-based, HIV-1; conditions: Human immunodeficiency virus 1, read-out: Virus Isolate (EC50 nM) NL4(P22-538)
Source text: as §1, with “NLA(P19-003) represents resistant strains obtained by selection of HIV-1^NL4-3 against the compound of Example 9 after 19 passages comprising protease genotype R8K, M46I. NL4(P34-003) represents resistant strains obtained by selection of HIV-1^NL4-3 against the compound of Example 9 after 34 passages comprising protease genotype R8K, M46I, L63P, A71V, L90M.” left out

Row | Compound | EC50 ([1]; Table 4, CEM-T4 cells) [ng/mL] | EC50 [2] [ng/mL] | EC50 [3] [ng/mL] | EC50 [4] [nM] | EC90 ([5]; Table 7, EC90, read-out: Virus Isolate (EC90 nM) NL4) [nM] | EC50 ([5]; Table 9, read-out: Virus Isolate (EC50 nM) NL4) [nM] | EC50 ([1]; Table 6, CEM-T4 cells) [ng/mL] | EC50 [6] [ng/mL] | EC50 [7] [nM]
1 | COc1ccc(S(=O)(=O)N(CC(C)C)C[C@@H](O)[C@H](Cc2ccccc2)NC(=O)OCc2cncnc2)cc1 [Example 3, [2R-hydroxy-3-[[(4-methoxyphenyl)sulfonyl](2-methylpropyl)amino]-1S-(phenylmethyl)propyl]carbamic acid 5-pyrimidylmethyl ester] | 5 (≈ 9.21 nM) | 2 (≈ 3.69 nM) |  |  |  |  |  |  | 
2 | COc1ccc(S(=O)(=O)N(CC(C)C)C[C@@H](O)[C@H](Cc2ccccc2)NC(=O)[C@H](C)CS(C)(=O)=O)cc1 (relative stereo) [Example 4, [1S-[1R*(R*),2S*]]-N-[2-hydroxy-3-[N^1-(2-methylpropyl)-N-(4-methoxyphenylsulfonyl)amino]-1-(phenylmethyl)propyl]-2-methyl-3-(methylsulfonyl)propanamide] | 10 (≈ 18 nM) | 0.4 (≈ 0.721 nM) |  |  |  |  |  |  | 
3 | CC(C)CN(C[C@@H](O)[C@H](Cc1ccccc1)NC(=O)[C@H](C)CS(C)(=O)=O)S(=O)(=O)c1ccc2c(c1)OCO2 [Example 15, N-[2R-hydroxy-3-[(2-methylpropyl)[(1,3-benzodioxol-5-yl)sulfonyl]amino]-1S-(phenylmethyl)propyl]2S-methyl-3-(methylsulfonyl)propanamide] |  |  | 9 (≈ 15.8 nM) | 1000 | 60 | 8 | 5 (≈ 8.79 nM) | 21 (≈ 36.9 nM) | 400
